Where two headings read alike, the source gives them in different places.
Assays:
[1] = target: A1 adenosine receptor (Homo sapiens, UniProt P30542); settings: cited from earlier work
[2] = target: T1, human A1 adenosine receptor (Homo sapiens, UniProt P30542); experiment: Displacement binding of [3H]CPX, yeast membranes expressing hA1R
T1 sequence (P30542 1-326): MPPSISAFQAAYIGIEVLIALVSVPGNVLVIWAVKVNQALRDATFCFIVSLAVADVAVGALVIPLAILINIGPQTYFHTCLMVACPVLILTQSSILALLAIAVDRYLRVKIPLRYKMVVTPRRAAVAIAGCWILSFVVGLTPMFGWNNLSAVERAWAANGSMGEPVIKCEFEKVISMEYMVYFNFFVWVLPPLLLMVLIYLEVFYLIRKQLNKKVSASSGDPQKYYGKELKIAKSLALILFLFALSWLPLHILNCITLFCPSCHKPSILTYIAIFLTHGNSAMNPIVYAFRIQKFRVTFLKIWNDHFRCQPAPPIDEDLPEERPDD

[3] = target: T2, human A3 receptor (Homo sapiens, UniProt P0DMS8); experiment: Displacement binding of [3H]CPX, yeast membranes expressing hA3R
T2 sequence (P0DMS8 1-318): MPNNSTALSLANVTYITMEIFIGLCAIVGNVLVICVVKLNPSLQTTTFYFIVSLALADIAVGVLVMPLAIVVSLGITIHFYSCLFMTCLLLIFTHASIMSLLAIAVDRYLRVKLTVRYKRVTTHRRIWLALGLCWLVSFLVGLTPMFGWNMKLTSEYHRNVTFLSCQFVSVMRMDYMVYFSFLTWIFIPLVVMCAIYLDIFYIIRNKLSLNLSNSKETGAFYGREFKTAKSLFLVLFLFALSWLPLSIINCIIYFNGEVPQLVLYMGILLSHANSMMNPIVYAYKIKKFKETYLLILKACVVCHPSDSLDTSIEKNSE

[4] = target: T3, human adenosine A1 receptor (Homo sapiens, UniProt P30542); experiment: Yeast β-Galactosidase reporter gene assay, inhibition of NECA-induced activity, strain CY12660
T3 sequence (P30542 1-326): T1 sequence (P30542 1-326)

[5] = target: T4, human A1 receptor subtype (Homo sapiens, UniProt P30542); experiment: biochemical
T4 sequence (P30542 1-326): T1 sequence (P30542 1-326)

[6] = target: T5, human A2a receptor subtype (Homo sapiens, UniProt P29274); experiment: Adenosine 2a receptor subtype competition radioligand binding, [3H]CGS-21680, HEK293 membranes; settings: Table 13; concentration not given
T5 construct: expressed in transfected cells; host or cells: HEK-293 (Cadus clone #5), membranes

[7] = target: T6, human A2b receptor subtype (Homo sapiens, UniProt P29275); experiment: Adenosine 2b receptor subtype competition radioligand binding, [3H]DPCPX, HEK293 membranes; settings: Table 13
T6 construct: expressed in transfected cells; host or cells: HEK293, membranes
T6 sequence (P29275 1-332): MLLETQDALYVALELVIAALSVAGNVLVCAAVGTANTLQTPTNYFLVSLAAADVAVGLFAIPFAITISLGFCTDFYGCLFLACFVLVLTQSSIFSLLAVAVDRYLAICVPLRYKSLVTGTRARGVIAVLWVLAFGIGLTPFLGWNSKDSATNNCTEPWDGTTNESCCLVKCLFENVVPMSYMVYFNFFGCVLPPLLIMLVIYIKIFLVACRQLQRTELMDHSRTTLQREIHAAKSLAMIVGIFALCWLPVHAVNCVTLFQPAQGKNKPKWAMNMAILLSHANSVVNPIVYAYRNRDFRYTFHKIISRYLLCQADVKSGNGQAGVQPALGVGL

[8] = target: T7, human A3 receptor subtype (Homo sapiens, UniProt P0DMS8); experiment: Adenosine 3 receptor competition radioligand binding, [125I]AB-MECA, HEK293 membranes
T7 sequence (P0DMS8 1-318): T2 sequence (P0DMS8 1-318)

[9] = target: T4, human A1 receptor subtype; settings: Table 13; concentration not given
[10] = A1 Yeast IC50 (nM), Table 6, Effect of N6-Substituent
[11] = A1 Binding Ki (nM), Table 6, Effect of N6-Substituent
[12] = A1 Yeast IC50 (nM), Table 10, Effect of N6-Substituent
[13] = A1 Binding Ki (nM), Table 10, Effect of N6-Substituent

T5 sequence (P29274 whole entry): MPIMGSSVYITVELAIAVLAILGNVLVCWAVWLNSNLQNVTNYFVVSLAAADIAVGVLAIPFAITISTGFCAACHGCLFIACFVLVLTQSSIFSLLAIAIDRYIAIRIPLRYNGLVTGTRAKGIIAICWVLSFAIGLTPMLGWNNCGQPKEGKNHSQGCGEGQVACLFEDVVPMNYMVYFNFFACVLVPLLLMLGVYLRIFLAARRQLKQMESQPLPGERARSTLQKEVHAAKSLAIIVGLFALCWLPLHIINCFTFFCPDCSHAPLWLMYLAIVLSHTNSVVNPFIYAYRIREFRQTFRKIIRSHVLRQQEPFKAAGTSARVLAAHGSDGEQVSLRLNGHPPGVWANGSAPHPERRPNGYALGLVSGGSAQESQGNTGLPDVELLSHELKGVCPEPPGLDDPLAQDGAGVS

Row | IC50 [4, 12] | Ki [5, 13] | SMILES | further results
1 | – | – | CC(Cc1ccccc1)Nc1ncnc2c1ncn2[C@@H]1O[C@H](CO)[C@@H](O)[C@H]1O (single isomer, unassigned; (-)) [PIA, (−)-N6-(2-phenylisopropyl)-adenosine] | reported affinity [1]: approximately 50 nM
2 | – | – | O=c1nc2[nH]c3ccccc3nc-2c(=O)[nH]1 [Alloxazine] | IC50 [2]: 1070 nM; IC50 [3]: 8220 nM
3 | – | – | Cc1[nH]c2nc(-c3ccccc3)nc(NC3CCC(NS(C)(=O)=O)CC3)c2c1C (stereo not shown) [Compound 604] | IC50 [4, 10]: > 10000 nM
4 | – | – | CC(=O)NC1CCC(Nc2nc(-c3ccccc3)nc3[nH]c(C)c(C)c23)CC1 (stereo not shown) [Compound 605] | IC50 [4, 10]: > 10000 nM; Ki [5, 11]: > 10000 nM
5 | – | – | Cc1[nH]c2nc(-c3ccccc3)nc(NC3CCC(OC(=O)c4ccccc4)CC3)c2c1C (stereo not shown) [Compound 606] | IC50 [4]: > 10000 nM
6 | – | – | Cc1[nH]c2nc(-c3ccccc3)nc(NC3CCC(OC(=O)c4ccccc4)CC3)c2c1C (stereo not shown) [Compound 611] | IC50 ([4]; read-out: A1 Yeast IC50, Table 6, Effect of N6-Substituent): > 10000 nM
7 | – | – | Cc1[nH]c2nc(-c3ccccc3)nc(N[C@@H]3CCC[C@H]3O)c2c1C [Compound 614] | Ki [5, 11]: 32.1 nM
8 | – | – | Cc1[nH]c2nc(C3CCCC3)nc(N[C@H]3CC[C@H](O)CC3)c2c1C [Compound 703] | IC50 ([4]; A1 Yeast IC50 (nM), Table 7, Effect of C2-Substituent): > 10000 nM; Ki ([5]; A1 Binding Ki (nM), Table 7, Effect of C2-Substituent): 444 nM
9 | – | – | Cc1[nH]c2nc(-c3ccc(F)cc3)nc(NC3CCC(O)CC3)c2c1C (stereo not shown) [Compound 707] | Ki [5]: 62.8 nM
10 | – | – | Cc1c(C)n(C)c2nc(-c3ccccc3)nc(N[C@H]3CC[C@H](O)CC3)c12 [Compound 800] | IC50 [4]: > 10000 nM; Ki [5]: 3310 nM
11 | – | – | Cc1c(C)n(C(C)c2ccccc2)c2nc(-c3ccccc3)nc(NCC(C)C)c12 (stereo not shown) [Compound 903] | Ki ([5]; A1 Binding Bi (nM), Table 9): 35.3 nM
12 | 1870 nM | 54.4 nM | Cc1[nH]c2nc(-c3ccccc3)nc(NCCNC=O)c2c1C [Compound 1001] | –
13 | 196 nM | 26.7 nM | CCC(=O)NCCNc1nc(-c2ccccc2)nc2[nH]c(C)c(C)c12 [Compound 1003] | –
14 | 546 nM | 32.8 nM | Cc1[nH]c2nc(-c3ccccc3)nc(NCCNC(=O)C3CC3)c2c1C [Compound 1004] | –
15 | 3970 nM | 147 nM | Cc1[nH]c2nc(-c3ccccc3)nc(NCCNC(=O)C(C)C)c2c1C [Compound 1005] | –
16 | 2920 nM | 152 nM | CC(=O)C(=O)NCCNc1nc(-c2ccccc2)nc2[nH]c(C)c(C)c12 [Compound 1006] | –
17 | – | 692 nM | Cc1[nH]c2nc(-c3ccccc3)nc(NCCNS(C)(=O)=O)c2c1C [Compound 1007] | –
18 | 3220 nM | 93.1 nM | Cc1[nH]c2nc(-c3ccccc3)nc(NCCNC(=O)CCC(=O)O)c2c1C [Compound 1008] | –
19 | – | 475 nM | Cc1[nH]c2nc(-c3ccccc3)nc(NCCNC(=O)CCN)c2c1C [Compound 1009] | –
20 | 9380 nM | 675 nM | CC(=O)NCCCNc1nc(-c2ccccc2)nc2[nH]c(C)c(C)c12 [Compound 1010] | –
21 | 2070 nM | 122 nM | CC(=O)OCCNc1nc(-c2ccccc2)nc2[nH]c(C)c(C)c12 [Compound 1011] | –
22 | 3010 nM | 270 nM | CCC(=O)NCCCNc1nc(-c2ccccc2)nc2[nH]c(C)c(C)c12 [Compound 1013] | –
23 | 2000 nM | 385 nM | Cc1[nH]c2nc(-c3ccccc3)nc(NCCO)c2c1C [Compound 1014] | –
24 | 5050 nM | 176 nM | Cc1[nH]c2nc(-c3ccccc3)nc(NCCCCO)c2c1C [Compound 1016] | –
25 | – | – | CC(=O)NC(C)CNc1nc(-c2ccccc2)nc2[nH]c(C)c(C)c12 (stereo not shown) [Compound 1104] | IC50 ([4]; A1 Yeast IC50 (nM), Table 11, Effect of N6-Substituent): 58.7 nM
26 | – | – | CNC(=O)NCCCNc1nc(-c2ccccc2)nc2[nH]c(C)c(C)c12 [Compound 1310] | Binding A2a, value given in % [6]: 76%
27 | – | – | CC(=O)NCCCCNc1nc(-c2ccccc2)nc2[nH]c(C)c(C)c12 [Compound 1311] | Ki [7]: 736 nM; Ki [8]: 5.3 nM
28 | – | – | Cc1[nH]c2nc(-c3ccccc3)nc(NCCNC(=O)C3(N)CC3)c2c1C [Compound 1313] | Binding A1, value printed in % [9]: 30%; Binding A2a, value given in % [6]: 65%
29 | – | – | CC(=O)NCCNc1nc(-c2ccccc2)nc2[nH]c(COc3ccccc3)cc12 [Example 17, 4-(2-acetylaminoethyl)amino-6-phenoxymethyl-2-phenyl-7H-pyrrolo[2,3d]pyrimidine] | melting point: 196 to 197 °C

— patent US6686366B1, “Compounds specific to adenosine A3 receptor and uses thereof” (OSI Pharmaceuticals, Inc., priority 1998, dated 2004)
